In paper PMC6284057, “Combined Antibacterial Effects of Goat Cathelicidins With Different Mechanisms of Action” (Frontiers in Microbiology, 2018):
≈ marks a conversion by molar mass, not a printed value. Like-named read-outs stand apart in the source and are kept apart here.

Assays:
[1] = test system: A. baumannii (XDR CI 2675); experiment: microbe, parasite or virus in culture; format: cell-based, Acinetobacter baumannii; details: read-out: Minimum inhibitory concentration
Method: (§1) Antimicrobial assay was performed as described previously ([Panteleev et al., 2017b]). Briefly, mid-log phase bacterial test cultures were diluted with the 2× Mueller-Hinton broth (MH, Sigma) supplemented with 1.8% NaCl or without it so that to reach a final cell concentration of 10^6 CFU/ml. 50 μl aliquots of the obtained bacterial suspension were added to 50 μl of the peptide solutions serially diluted with 0.1% water solution of bovine serum albumin (BSA) in 96-well flat-bottom polystyrene microplates (Eppendorf #0030730011). After incubation at 37°C and 900 rpm for 24 h the minimum inhibitory concentrations (MIC) were determined as the lowest peptide concentrations that prevented growth of a test microorganism observed as visible turbidity. The results were expressed as the median values determined on the basis of at least three independent experiments performed in triplicate.

E. coli (XDR CI 1057) = experiment: microbe, parasite or virus in culture; format: cell-based, Escherichia coli; details: Escherichia coli, read-out: Minimum inhibitory concentration
Method: as §1

[2] = test system: P. aeruginosa (XDR CI 1049); experiment: microbe, parasite or virus in culture; format: cell-based, Pseudomonas aeruginosa; details: Pseudomonas aeruginosa; Table S2, XDR clinical isolate; NaCl content of medium not stated; read-out: Minimum inhibitory concentration
Method: as §1

[3] = test system: K. pneumoniae (XDR CI 1056); experiment: microbe, parasite or virus in culture; format: cell-based, Klebsiella pneumoniae; details: Klebsiella pneumoniae; Table S2, XDR clinical isolate; NaCl content of medium not stated; read-out: Minimum inhibitory concentration
Method: as §1

E. cloacae (XDR CI 4172) = experiment: microbe, parasite or virus in culture; format: cell-based, Enterobacter cloacae; details: Enterobacter cloacae; Table S2, XDR clinical isolate; NaCl content of medium not stated; read-out: Minimum inhibitory concentration
Method: as §1

[4] = test system: P. mirabilis (XDR CI 3423); experiment: microbe, parasite or virus in culture; format: cell-based, Proteus mirabilis; details: Proteus mirabilis; Table S2, XDR clinical isolate; NaCl content of medium not stated; read-out: Minimum inhibitory concentration
Method: as §1

[5] = test system: in vitro translation of EGFP, E. coli BL21 Star (DE3) cell lysate; experiment: Cell-free protein expression assay (EGFP); format: biochemical, Escherichia coli; details: EGFP fluorescence, 1.5 h, 30°C
Method: The cell lysate used for translation inhibition assay was prepared using the E. coli BL21 Star (DE3) cell culture grown at 30°C in the 2x YTPG liquid medium (1% yeast extract, 1.6% tryptone, 0.5% NaCl, 22 mM NaH2PO4, 40 mM Na2HPO4, 0.1 M glucose). The chromosome of DE3 strains contains a gene encoding T7 RNA polymerase under control of the lacUV5 promoter. The bacterial culture was grown to OD600 0.8–1.0, then T7 RNA polymerase gene was induced by adding 0.2 mM IPTG. Bacteria were harvested at OD600 5.0–6.0 by centrifugation (3000 g, 30 min, 4°C). The bacterial pellet was washed three times by suspending it in four volumes of wash buffer (10 mM Tris-acetate buffer, pH 8.2, 60 mM potassium glutamate, 14 mM magnesium acetate, 1 mM DTT), then resuspended in one volume of the same buffer (1 ml per 1 g of wet cell mass) and disrupted by sonication at 5–15°C. The total cell lysate was centrifuged at 15000 g (30 min, 4°C). The supernatant was split into aliquots and stored at -70°C.
In order to investigate the effect of AMPs on the translation process, the peptides were added to a cell-free protein synthesis (CFPS) reaction mix with a plasmid encoding EGFP variant (F64L, S65T, Q80R, F99S, M153T, and V163A) under a control of the T7 promoter. The reaction mix consisted of the following components: 1.2 mM ATP, 0.8 mM UTP, 0.8 mM GTP, 0.8 mM CTP, 2 mM of each of 20 proteinogenic amino acids, 1.5 mM spermidine, 1 mM putrescine dihydrochloride, 0.06647 mM calcium folinate, 170 ng/ml tRNA from the E. coli MRE 600 strain, 0.33 mM NAD, 120 mM HEPES-KOH (pH 8.0), 10 mM ammonium glutamate, 175 mM potassium glutamate, 60 mM glucose, 15 mM magnesium glutamate, 2% PEG 8000, 25% E. coli BL21 Star (DE3) cell lysate, 10 ng/μl plasmid DNA. The reaction volume was 50 μl. […] Fluorescence of the sample without inhibitor was set as the 100% value. […] Fluorescence of the synthesized EGFP was measured with the microplate reader AF2200 (λExc = 488 nm, λEm = 510 nm). […] IC50 values were determined by interpolation from non-linear regression curves using the GraphPad Prism 6.0 software.

[6] = test system: all the cells tested (hRBC, HEF, HEK293T); experiment: Hemolysis and cytotoxicity assay; format: cell-based, human; details: positive control
Method: Hemolytic activity of the peptides was tested against the fresh suspension of human red blood cells (hRBC) using the hemoglobin release assay as described previously ([Panteleev et al., 2016]). Three experiments were performed with the hRBC from blood samples obtained from independent donors. The obtained data were represented as average means with standard deviations. The cytotoxicity of the peptides against HEK293T (transformed human embryonic kidney cells) and HEF (human embryonic fibroblasts) cell lines was studied using the colorimetric 3-(4,5-dimethylthiazol-2-yl)-2,5-diphenyltetrazolium bromide (MTT) dye reduction assay according to ([Panteleev and Ovchinnikova, 2017]). Three independent experiments were performed for each peptide. Half maximal inhibitory concentration (IC50) values were estimated as described previously ([Kuzmin et al., 2018]).

E. coli C600 = format: cell-based, Escherichia coli; details: Mueller-Hinton broth, 10^6 CFU/ml, 0.1% BSA, 37°C, 24 h, median of at least 3 experiments
Method: as §1

E. coli ML-35p = format: cell-based, Escherichia coli; details: Mueller-Hinton broth, 10^6 CFU/ml, 0.1% BSA, 37°C, 24 h, median of at least 3 experiments
Method: as §1

S. aureus 209P = format: cell-based, Staphylococcus aureus; details: Mueller-Hinton broth, 10^6 CFU/ml, 0.1% BSA, 37°C, 24 h, median of at least 3 experiments
Method: as §1

M. luteus B-1314 = format: cell-based, Micrococcus luteus; details: Mueller-Hinton broth, 10^6 CFU/ml, peptide diluted in 0.1% BSA, 37°C, 24 h, median of at least 3 experiments in triplicate
Method: as §1

K. pneumoniae (CI 287) = format: cell-based, Klebsiella pneumoniae; details: Mueller-Hinton broth, 10^6 CFU/ml, 0.1% BSA, 37°C, 24 h, median of at least 3 experiments
Method: as §1

B. subtilis B-886 = format: cell-based, Bacillus subtilis; details: Mueller-Hinton broth, 10^6 CFU/ml, 0.1% BSA, 37°C, 24 h, median of at least 3 experiments
Method: as §1

P. aeruginosa PAO1 = format: cell-based, Pseudomonas aeruginosa; details: Mueller-Hinton broth, 10^6 CFU/ml, 0.1% BSA, 37°C, 24 h, median of at least 3 experiments
Method: as §1

Q: Which results are given for `C[C@@H](O)[C@H]1C(=O)N2C(C(=O)O)=C(S[C@@H]3CN[C@H](C(=O)N(C)C)C3)[C@H](C)[C@H]12` [Meropenem, reference compound]?
A: MIC ([1]; Acinetobacter baumannii, Table S2, XDR clinical isolate, NaCl content of medium not stated): 0.5 µM (≈ 0.192 µg/mL); MIC (E. coli (XDR CI 1057)): 0.125 µM (≈ 0.0479 µg/mL); MIC [2]: 64 µM (≈ 24.5 µg/mL); MIC [3]: 16 µM (≈ 6.14 µg/mL); MIC (E. cloacae (XDR CI 4172)): 0.5 µM (≈ 0.192 µg/mL); MIC [4]: > 128 µM

Q: With KWCFRVCYRGICYRRCR [Tachyplesin-1] as the compound, how does the “inhibition of protein biosynthesis, in words” value [5] read?
A: comparable level of inhibition

Q: For `CC[C@H](C)[C@H](NC(=O)CN)C(=O)NCC(=O)N[C@@H](C)C(=O)N[C@H](C(=O)N[C@@H](CC(C)C)C(=O)N[C@@H](CCCCN)C(=O)N[C@H](C(=O)N[C@@H](CC(C)C)C(=O)N[C@H](C(=O)N[C@H](C(=O)NCC(=O)N[C@@H](CC(C)C)C(=O)N1CCC[C@H]1C(=O)N[C@@H](C)C(=O)N[C@@H](CC(C)C)C(=O)N[C@H](C(=O)N[C@@H](CO)C(=O)N[C@@H](Cc1c[nH]c2ccccc12)C(=O)N[C@H](C(=O)N[C@@H](CCCCN)C(=O)N[C@@H](CCCNC(=N)N)C(=O)N[C@@H](CCCCN)C(=O)N[C@@H](CCCNC(=N)N)C(=O)N[C@@H](CCC(N)=O)C(=O)N[C@@H](CCC(N)=O)C(N)=O)[C@@H](C)CC)[C@@H](C)CC)[C@@H](C)O)[C@@H](C)O)C(C)C)C(C)C` [Melittin, reference compound], which “concentrations that completely damaged all the cells tested” value [6] is on record?
A: < 2500 nM

Q: And the Minimum inhibitory concentration (E. coli C600; 0.9% NaCl)?
A: 8 µM (≈ 22.8 µg/mL)

Q: And the Minimum inhibitory concentration (E. coli C600; Without NaCl)?
A: 4 µM (≈ 11.4 µg/mL)

Q: What about the Minimum inhibitory concentration (E. coli ML-35p; 0.9% NaCl) of the same compound?
A: 8 µM (≈ 22.8 µg/mL)

Q: What about the Minimum inhibitory concentration (E. coli ML-35p; Without NaCl) of the same compound?
A: 2 µM (≈ 5.69 µg/mL)

Q: What about the MIC ([1]; 0.9% NaCl, Mueller-Hinton broth, 10^6 CFU/ml, 0.1% BSA, 37°C, 24 h, median of at least 3 experiments) of the same compound?
A: 8 µM (≈ 22.8 µg/mL)

Q: What about the MIC ([1]; Without NaCl, Mueller-Hinton broth, 10^6 CFU/ml, 0.1% BSA, 37°C, 24 h, median of at least 3 experiments) of the same compound?
A: 2 µM (≈ 5.69 µg/mL)

Q: What about the Minimum inhibitory concentration (S. aureus 209P; 0.9% NaCl) of the same compound?
A: 16 µM (≈ 45.5 µg/mL)

Q: What about the Minimum inhibitory concentration (S. aureus 209P; Without NaCl) of the same compound?
A: 2 µM (≈ 5.69 µg/mL)

Q: And the Minimum inhibitory concentration (M. luteus B-1314; 0.9% NaCl)?
A: 0.5 µM (≈ 1.42 µg/mL)

Q: And the Minimum inhibitory concentration (M. luteus B-1314; Without NaCl)?
A: 0.25 µM (≈ 0.712 µg/mL)

Q: What about the Minimum inhibitory concentration (K. pneumoniae (CI 287); 0.9% NaCl) of the same compound?
A: 16 µM (≈ 45.5 µg/mL)

Q: What about the Minimum inhibitory concentration (K. pneumoniae (CI 287); Without NaCl) of the same compound?
A: 4 µM (≈ 11.4 µg/mL)

Q: What about the Minimum inhibitory concentration (B. subtilis B-886; 0.9% NaCl) of the same compound?
A: 0.5 µM (≈ 1.42 µg/mL)

Q: What about the Minimum inhibitory concentration (B. subtilis B-886; Without NaCl) of the same compound?
A: 0.5 µM (≈ 1.42 µg/mL)

Q: And the Minimum inhibitory concentration (P. aeruginosa PAO1; 0.9% NaCl)?
A: 8 µM (≈ 22.8 µg/mL)

Q: And the Minimum inhibitory concentration (P. aeruginosa PAO1; Without NaCl)?
A: 4 µM (≈ 11.4 µg/mL)

Q: Which “concentration of full inhibition of in vitro protein synthesis” value [5] does the source give for `[H]/N=C(/N)N[C@H]1[C@H](O)[C@@H](O)[C@H](O[C@@H]2O[C@@H](C)[C@](O)(C=O)[C@H]2O[C@@H]2O[C@@H](CO)[C@H](O)[C@@H](O)[C@@H]2NC)[C@@H](N/C(N)=N\[H])[C@@H]1O` [streptomycin] here?
A: > 1 µM

Q: What about the IC50 ([5]; at least 3 independent experiments, read-out: IC50, inhibition of in vitro protein synthesis) of the same compound?
A: 200 nM
